Laboratory results as given in patent US5478946A, “Guanidino compounds as regulators of nitric oxide synthase” (Abbott Laboratories, priority 1993, dated 1995).

Tests used:
[1] = molecular target: T1, Type II NOS (RAW macrophage cell cytosol) (Mus musculus, UniProt P29477); experiment: [3H]-Arginine to [3H]-Citrulline conversion, RAW cell cytosol (Type II NOS); assay type: biochemical, murine; details: for inhibition at 100 µM / IC50: LPS induced; for IC50: read-out: Inhibition of [3H]-Citrulline Formation IC50, RAW Cell cytosol
T1 construct: cytosolic preparations from RAW 264.7 cells; endogenous in cells; host or cells: RAW 264.7 cells, LPS-induced for 16 hours
Text: (§1) The enzyme NO synthase produces EDRF/NO and citrulline from L-arginine (Bredt and Snyder, Proc. Nat'l. Acad. Sci. USA, 1989, 87: 682-5). The enzymatic generation of EDRF/NO is monitored by measuring the conversion of [^3 H]-L-arginine to [^3 H]-L-citrulline. An inhibitor of this specific enzymatic reaction lowers the conversion rate and, thus, the amount of [^3 H]-L-citrulline produced. Likewise, a compound acting as a substrate would compete with L-arginine and thereby lower the conversion rate.
(§2) The conversion of L-arginine to L-citrulline was assayed as reported previously (Bredt and Snyder, Proc. Nat'l Acad Sci USA, 1989, 87: 682-5) with minor modifications. Briefly, samples of partially purified NO synthase, 50-100 μg of protein or 20 μL of cytosol (alternatively cytosolic preparations from RAW 264.7 cells, a murine monocyte-macrophage cell line, induced for 16 hours with 10 μg/mL medium of Lipopolysaccharide (LPS), or partially purified (phosphocellulose column) type I isozyme from rat brain cerebellum, or partially purified isozyme III from bovine aortic endothelial cells (BAE cells)) were incubated for 20 minutes (3 minutes in the cases of purified enzyme preparations) at 25° C. in the presence of 10 μM L-[2,3-^3 H]arginine (55 Ci /mmol) (containing 34 nM (0.2 μCi)), 1 mM NADPH, and 2 Mm CaCl2 in a final volume of 100 μL. The reaction was stopped by adding 1 mL of stop buffer (2 mM EGTA, 2 mM EDTA 20 mM Hepes, pH 5.5). The total volume was then applied to a 1 mL Dowex AG 50 WX-8 column (Na^+ form, Bio-Rad) that had been pre-equilibrated with the stop buffer. L-[2,3-^3 H]Citrulline was eluted (2×) with 0.5 mL of stop buffer and radioactivity was determined by liquid scintillation counting.
(§3) The following Tables present data on the inhibition of [^3 H]-citrulline formation from [^3 H]-L-arginine by the compounds of the invention in various preparations representative of the isoforms of NOS, Types I, II, and III NOS as represented by rat brain cytosol, […] macrophage cell cytosol, and BAE homogenate preparation respectively.

[2] = molecular target: T2, Type III NOS (BAE homogenate preparation) (Bos taurus, UniProt P29473); experiment: [3H]-Arginine to [3H]-Citrulline conversion, BAE homogenate preparation (Type III NOS); assay type: biochemical, bovine; details: for IC50: read-out: Inhibition of [3H]-Citrulline Formation IC50, BAE Preparation
T2 construct: partially purified isozyme III from bovine aortic endothelial cells (BAE cells); endogenous in cells; host or cells: bovine aortic endothelial (BAE) cells
Text: as §1, §2, §3

[3] = molecular target: T3, Type I NOS (rat brain cytosol) (Rattus norvegicus, UniProt P29476); experiment: [3H]-Arginine to [3H]-Citrulline conversion, rat brain cytosol (Type I NOS); assay type: biochemical; details: for IC50: read-out: Inhibition of [3H]-Citrulline Formation IC50, Rat Brain Cytosol
T3 construct: type I isozyme from rat brain cerebellum; from tissue; host or cells: rat brain (cytosol; cerebellum, phosphocellulose-purified)
Text: as §1, §2, §3

[4] = read-out: Percent Inhibition of [3H]-Citrulline Formation, RAW Cell Cytosol
[5] = read-out: Percent Inhibition of [3H]-Citrulline Formation, Rat Brain Cytosol
[6] = read-out: Percent Inhibition of [3H]-Citrulline Formation, BAE Preparation

| SMILES | inhibition at 100 µM [1, 4] | IC50 [1] | IC50 [2] | inhibition at 100 µM [3, 5] | IC50 [3] | inhibition at 100 µM [2, 6] | inhibition at 10 µM ([1]; tested at 10 μM, read-out: Percent Inhibition of [3H]-Citrulline Formation, RAW Cell Cytosol) | inhibition at 30 µM ([2]; tested at 30 μM, read-out: Percent Inhibition of [3H]-Citrulline Formation, BAE Preparation) | inhibition at 30 µM ([3]; tested at 30 μM, read-out: Percent Inhibition of [3H]-Citrulline Formation, Rat Brain Cytosol) |
| --- | --- | --- | --- | --- | --- | --- | --- | --- | --- |
| CC(C)(C)OC(=O)N1[C@@H](/C=C/CNC(=N)N[N+](=O)[O-])COC1(C)C [Example 1, 3-(1,1 -Dimethylethyl)-(S)-4-(3-N^G -nitroguanidinopropen-1, E-yl)-2,2-dimethyl-3-oxazolidinecarboxvlate] | 0% | > 100 µM | > 100 µM | 6% | > 100 µM | – | – | – | – |
| N=C(NC/C=C/[C@H](N)CO)N[N+](=O)[O-] [Example 2, N^G -Nitroguanidinyl-4(S)-amino-pent-2,E-ene-5-ol] | 14% | > 100 µM | 80 µM | 80% | 40 µM | – | – | – | – |
| CC(C)(C)OC(=O)N1[C@@H](/C=C/CNC(=N)N)COC1(C)C [Example 3, 3-(1,1-Dimethylethyl)-(S)-4-(3-guanidinopropen-1,E-yl)-2,2-dimethyl-3-oxazolidinecarboxylate] | 68% | 40 µM | > 100 µM | 35% | > 100 µM | – | – | – | – |
| N=C(N)NC/C=C/[C@H](N)CO [Example 4, 1-Guanidirlyl-4(S)-amino-pent-2,E-ene-5-ol] | 50% | 100 µM | > 100 µM | – | – | 22% | – | – | – |
| N=C(NN)NC/C=C/[C@H](N)CO [Example 6, N^G -Aminoguanidinyl-4(S)-amino-pent-2,E-ene-5-ol] | – | 22 µM | > 30 µM | – | > 30 µM | – | 46% | 0% | 0% |
| CC(C)(C)OC(=O)N1[C@@H](/C=C/CNC(=N)NO)COC1(C)C [Example 7, 3-(1,1-Dimethylethyl)-(S)-4-(3-N^G -hydroxyguanidinopropen-1,E-yl)-2.2-dimethyl-3-oxazolidinecarboxylate] | 17% | > 100 µM | – | – | – | – | – | – | – |
| N=C(NO)NC/C=C/[C@H](N)CO [Example 8, N^G -Hydroxyguanidinyl-4(S)-amino-pent-2,E-ene-5-ol] | 13% | > 100 µM | – | 23% | > 100 µM | – | – | – | – |
| CNC(=N)NC/C=C/[C@H]1COC(C)(C)N1C(=O)OC(C)(C)C [Example 9, 3-(1,1-Dimethylethyl)-(S)-4-(3-N^G -methylguanidinoorooen-1,E-yl)-2.2-dimethyl-3-oxazolidinecarboxylate] | 47% | 100 µM | – | 51% | 80 µM | – | – | – | – |
| CNC(=N)NC/C=C/[C@H](N)CO [Example 10, N^G -Methylguanidinyl-4(S)-Amino-pent-2 ,E-ene-5-ol] | 43% | > 100 µM | > 100 µM | 74% | 30 µM | 40% | – | – | – |
| CCNC(=N)NC/C=C/[C@H]1COC(C)(C)N1C(=O)OC(C)(C)C [Example 11, 3-(1,1-Dimethylethyl)-(S)-4-(3-N^G -ethylguanidinopropen-1,E-yl)-2,2-dimethyl-3-oxazolidinecarboxylate] | 41% | > 100 µM | – | 20% | > 100 µM | – | – | – | – |
| CCNC(=N)NC/C=C/[C@H](N)CO [Example 12, N^G Ethylguanidinyl-4(S)-Amino-pent-2,E-ene-5-ol] | 8% | > 100 µM | > 100 µM | 70% | 30 µM | 5% | – | – | – |
| C/C(=C\[C@H]1COC(C)(C)N1C(=O)OC(C)(C)C)CNC(=N)N[N+](=O)[O-] [Example 14, 3-(1,1-Dimethylethyl)-(S)-4-(3-nitroguanidino-2-methyl-propen-1,E-yl)-2,2-dimethyl-3-oxazolidinecarboxylate] | 0% | > 100 µM | > 100 µM | 0% | > 100 µM | – | – | – | – |
| C/C(=C\[C@H](N)CO)CNC(=N)N[N+](=O)[O-] [Example 15, N^G -Nitroguanidinyl-4(S)-Amino-2-methyl-pent-2,E-ene-5-ol] | 66% | 40 µM | 100 µM | 90% | 10 µM | 50% | – | – | – |
| CNC(=N)NC/C=C/[C@@H](CO)NC(=O)OC(C)(C)C [Example 17, N^4, Boc-N^G -Methylguanidinyl-4(S)-Amino-pent-2,E-ene-5-ol] | 6% | > 100 µM | – | 18% | > 100 µM | – | – | – | – |
| CNC(=N)NC/C=C/[C@@H]1COC(C)(C)N1C(=O)OC(C)(C)C [Example 18, 3-(1,1-Dimethylethyl)-(R)-4-(3-N^G -methylguanidinopropen-1,E-yl)-2,2-dimethyl-3-oxazolidinecarboxylate] | 9% | > 100 µM | – | 17% | > 100 µM | – | – | – | – |
| CNC(=N)NC/C=C/[C@@H](N)CO [Example 19, N-^G -Methylguanidinyl-4(R)-Amino-pent-2,E-ene,5-ol] | 27% | > 100 µM | > 100 µM | 77% | 35 µM | 0% | – | – | – |
| C/C(=C\[C@H]1COC(C)(C)N1C(=O)OC(C)(C)C)CNC(=N)N [Example 20, 3-(1,1-Dimethylethyl)-(S)-4-(3-guanidino-2-methyl-propen-1,E-yl)-2,2-dimethyl-3-oxazolidinecarboxylate] | 45% | 100 µM | – | 27% | > 100 µM | – | – | – | – |
| C/C(=C\[C@H](N)CO)CNC(=N)N [Example 21, N^G -Guanidinyl-4(S)-Amino-2-methyl-pent-2,E-ene-5-ol] | 94% | 30 µM | 100 µM | 86% | 20 µM | 50% | – | – | – |
| CC(C)(C)OC(=O)N1[C@H](/C=C/CNC(=N)N)COC1(C)C [Example 22, 3-(1,1-Dimethylethyl)-(R)-4-(3-guanidinopropen-1.E-yl)-2,2-dimethyl-3-oxazolidinecarboxylate] | 97% | < 100 µM | 100 µM | 70% | 40 µM | 50% | – | – | – |
| CC(C)(C)OC(=O)N1[C@@H](/C=C(/CNC(=N)N)Cc2ccccc2)COC1(C)C [Example 24, 3-(1,1-Dimethylethyl)-(S)-4-(3,guanidino-2-benzyl-propen-1,E,yl)-2,2-dimethyl--oxazolidinecarboxylate] | 20% | > 100 µM | – | 35% | > 100 µM | – | – | – | – |
| N=C(N)NC/C(=C/[C@H](N)CO)Cc1ccccc1 [Example 25, N^G -Guanidinyl-4(S)-Amino-2-benzyl-pent-2,E-ene-5-ol] | 20% | > 100 µM | > 100 µM | 80% | 40 µM | 14% | – | – | – |
| CNC(=N)NC/C(C)=C/[C@H](N)CO [Example 27, N^G -Methylguanidinyl-4(S)-Amino-2-methyl-pent-2,E-ene-5-ol] | 97% | 20 µM | > 100 µM | 86% | 20 µM | 46% | – | – | – |
